The subject of one assay is Male BALB/c mice. Put plainly: Cigarette-smoke-induced lung neutrophilia. The class given is in vivo. The following applies: oral gavage; for reduction of neutrophil number in BALF, statistical significance: p<0.05 vs vehicle control. The method, then: Male BALB/c mice (weighing 21-24 g, were randomly grouped, 5 animals per group) were pre-treated with compound (100, 30, 10, 3 and 1 mg/kg body weight) or vehicle (5% DMSO/95% methyl-cellulose 0.5% w/v, positive control) by oral gavage in a volume of 10 mL/kg. 2 hours after compound administration, 10 mice were placed into a plexiglass box (Braintree Scientific, size 10″×4″×4″) with an input port for aerosol and another port for exhaust. Cigarette smoke was introduced through the aerosol port via a peristaltic pump (Masterflex L/S, Digital Economy Drive) set at 40 ml/min. Breathing air was also introduced through the same port via an elbow in the tubing at a rate of 0.4 L/min. With these settings, smoke concentration delivered to the box was approximately 10%. 3 cigarettes (research type 4A1, University of Kentucky Tobacco Institute) were given back-to-back with a 1 min period between each one, when the mice breathed fresh air for one minute. 2 to 3 hours after the first group of cigarettes, 2 additional cigarettes were given, again allowing 1 min between each cigarette. After the last cigarette, the mice were returned to their normal housing. This procedure was carried out for 2 days.
On the 3rd day, mice were euthanized with 0.1 ml Fatal Plus i.p., then bronchoalveolar lavaged with 5×0.7 ml Dulbecco's phosphate-buffered saline (dPBS, in-house Media Prep lab) through a tracheal tube. BALF was spun at 3000 rpm for 10 min, the supernatant discarded, and the cells resuspended with 1 ml dPBS. Slides were made on a cytospin (100 μl fluid, spun at 300 rpm for 5 min), then stained with Diff Quick for differential counts (minimum of 200 cells counted). Total cell counts were performed with a hemocytometer after a dilution with Tuerks solution.
Results are expressed as percentage decrease in number of neutrophils in BALF of treated animals compared to positive control (vehicle treated and smoke challenged animals).

Assay [1] relates to IL-6 production in LPS-stimulated murine spleenocytes. Put plainly: Inhibition of IL-6 production in LPS-stimulated murine spleenocytes in vitro. The assay is classed as cell-based. The following applies: Mus musculus, 50 μM concentration of the compound, read-out: inhibition of interleukin-6 (IL-6) production. How it is done: Test and reference substances used in an in vitro assays were dissolved in dimethyl sulfoxide (DMSO) (Sigma Chemical Co., USA) at a concentration of 50 mM and were further diluted to test concentrations in appropriate cell culture medium.
After cervical dislocation, mouse spleens were removed using sterile dissection tools. Spleens were transferred to a pre-wetted cell strainer in a 50 mL sterile conical tube and cell suspension was made by gentle puddle. Cells were centrifuged (20 min, 300×g) and resuspended in 2 mL of sterile phosphate buffered saline (PBS) (Sigma Chemical Co., USA). Red blood cells were lysed by addition of 3 mL of sterile water and occasionally gentle shaking for 1 minute. Afterwards, the tube was filled to 40 mL with DMEM medium and centrifuged (20 min, 300×g). Cells were resuspended in DMEM supplemented with 1% FBS and seeded in a 24-well plate, 1×10^6 cells per mL medium.
Final concentrations of 50 μM, 25 μM, 12.5 μM, 6.3 μM and 3.1 μM of test compounds were prepared by diluting a 50 mM DMSO stock in Dulbecco's modified Eagle medium (DMEM) (Gibco, USA) supplemented with 1% heat inactivated fetal bovine serum (FBS) (BioWest, Ringmer, United Kingdom).
Cells were pre-incubated with the test compounds for 3 h at 37° C., in an atmosphere of 5% CO2 and 90% humidity. Afterwards, cells were stimulated with 1 μg/mL lipopolysaccharide (LPS, E. coli 0111:B4, Sigma Chemical Co., USA) and incubated overnight. Concentration of IL-6 was determined in cell supernatants by sandwich ELISA using capture and detection antibodies (R&D Systems, USA) according to the manufacturer's recommendations.
Inhibition (as percentage) was calculated using the following formula:
% inhibition=[1−(concentration of IL-6 in sample−concentration of IL-6 in negative control)/(concentration of IL-6 in positive control−concentration of IL-6 in negative control)]×100.
The positive control refers to LPS-stimulated samples that were not preincubated with the compounds.
The negative control refers to unstimulated and untreated samples.

A further assay deals with male BALB/cJ mice. Put plainly: Lung neutrophilia induced by bacterial lipopolysaccharide in male BALB/cJ mice - Method B. The following applies: Mus musculus, ip, 24 h, single dose of 100 mg/kg i.p., vs LPS challenged untreated animals. The class given is in vivo. How it is done: For intraperitoneal administration (i.p.) compounds were dissolved in a final concentration of 10 mg/mL. The required amount of compound was first dissolved in dimethylsulfoxide (DMSO, Sigma) and then diluted with 0.5% (w/v) methyl-cellulose so that the final DMSO concentration was 5% (v/v). The obtained solution was applied in a dose volume of 0.1 mL per 10 g of animal. Therefore, the compound dose was 100 mg/kg.
Male BALB/cJ mice (Charles River, Germany), with an average weight of ˜25 g were randomly grouped (n=8 in testing group, 10 in positive control and 6-8 in negative control). Mice received intraperitoneally (i.p.) a single dose of 100 mg/kg of test compound. Two hours after administration, 0.4 μg of LPS (from Escherichia coli serotype 0111:B4, Sigma), dissolved in sterile saline (0.9% NaCl) in a volume of 50 μL, was intranasally administered to all experimental groups except the negative control group, which received the same volume of vehicle (saline). Animals were sacrificed approximately 24 hours after application of LPS in order to obtain bronchoalveolar lavage fluid (BALF), which was used to determine absolute number of cells and the percentage of neutrophils. […] In some experiments neutrophil levels in BALF were assessed by measurement of concentration of a neutrophil-specific enzyme myeloperoxidase (MPO). Results are then expressed as percentage of decrease in myeloperoxidase (MPO) concentration measured in BALF lysates of treated animals compared to positive control (Mouse MPO ELISA Kit, Hycult biotechnology, Nederlands). For this purpose, BALF was sonicated after addition of 1.5% Triton-X-100 (Pharmacia Biotech) in Milli-Q water and frozen at −80° C. until analysed.

Where [2] appears, read: Neutrophil, read-out: inhibition of number of neutrophils or decrease in myeloperoxidase concentration in BALF.
[3] abbreviates: read-out: inhibition of total cell number in BALF.

Like-named read-outs stand apart in the source and are kept apart here. Bounds are passed on as bounds.

One may read the inhibition as the share of the control response that was lost under treatment.

On to `CCC(=O)NCCCO[C@H]1[C@H](O[C@@H]2[C@@H](C)[C@H](O[C@H]3C[C@@](C)(OC)[C@@H](O)[C@H](C)O3)[C@@H](C)C(=O)O[C@H](CC)[C@@](C)(O)[C@H](O)[C@@H](C)N(C)C[C@H](C)C[C@@]2(C)O)O[C@H](C)C[C@@H]1N(C)C` [Example 2, 2′-O-[3-(Propanoylamino)propyl]-9-deoxo-9a-methyl-9a-aza-9a-homoerythromycin A], for which the “reduction of neutrophil number in BALF, statistical significance” value (“reduction … statistical significance” below) in the assay with Male BALB/c mice (dose of 100 mg/kg) is “no statistical significance”. For the same molecule, the “inhibition of neutrophil number in BALF” value in the assay with Male BALB/c mice (dose of 100 mg/kg, vs vehicle treated smoke challenged animals) is “less than 10%”. For the same molecule, the inhibition at 50 µM in assay [1] is > 40%.
As for `CC[C@H]1OC(=O)[C@H](C)[C@@H](O[C@H]2C[C@@](C)(OC)[C@@H](O)[C@H](C)O2)[C@H](C)[C@@H](O[C@@H]2O[C@H](C)C[C@H](N(C)C)[C@H]2OCCCNC(=O)COC)[C@](C)(O)C[C@@H](C)CN(C)[C@H](C)[C@@H](O)[C@]1(C)O` [Example 16, 2′-O-{3-[(Methoxyacetyl)amino]propyl}-9-deoxo-9a-methyl-9a-aza-9a-homoerythromycin A], in the assay with Male BALB/c mice (dose of 30 mg/kg), the “reduction … statistical significance” value was “statistically significantly reduced”. Moreover, the inhibition in vivo at 100 mg/kg in the assay with male BALB/cJ mice (setting [2]) and with male BALB/cJ mice (setting [3]) was > 50% throughout. In addition, the inhibition at 50 µM in assay [1] is > 40%.
In the case of `CC[C@H]1OC(=O)[C@H](C)[C@@H](O[C@H]2C[C@@](C)(OC)[C@@H](O)[C@H](C)O2)[C@H](C)[C@@H](O[C@@H]2O[C@H](C)C[C@H](N(C)C)[C@H]2OCCCNC(=O)c2ccoc2)[C@](C)(O)C[C@@H](C)CN(C)[C@H](C)[C@@H](O)[C@]1(C)O` [Example 17, 2′-O-{3-[(3-Furanylcarbonyl)amino]propyl}-9-deoxo-9a-methyl-9a-aza-9a-homoerythromycin A], the inhibition in vivo at 100 mg/kg with male BALB/cJ mice (setting [2]) and with male BALB/cJ mice (setting [3]) was > 50% each time. In addition, the inhibition at 50 µM in assay [1] was > 40%.
Take `CC[C@H]1OC(=O)[C@H](C)[C@@H](O[C@H]2C[C@@](C)(OC)[C@@H](O)[C@H](C)O2)[C@H](C)[C@@H](O[C@@H]2O[C@H](C)C[C@H](N(C)C)[C@H]2OCCCNC(=O)c2cnc(C)cn2)[C@](C)(O)C[C@@H](C)CN(C)[C@H](C)[C@@H](O)[C@]1(C)O` [Example 18, 2′-O-(3-{[(5-Methyl-2-pyrazinyl)carbonyl]amino}propyl)-9-deoxo-9a-methyl-9a-aza-9a-homoerythromycin A]: the inhibition in vivo at 100 mg/kg with male BALB/cJ mice (setting [2]) and with male BALB/cJ mice (setting [3]) was > 50% throughout. Moreover, the inhibition at 50 µM in assay [1] was > 40%.
Take `CC[C@H]1OC(=O)[C@H](C)[C@@H](O[C@H]2C[C@@](C)(OC)[C@@H](O)[C@H](C)O2)[C@H](C)[C@@H](O[C@@H]2O[C@H](C)C[C@H](N(C)C)[C@H]2OCCCNC(=O)c2c(C)nn(C)c2C)[C@](C)(O)C[C@@H](C)CN(C)[C@H](C)[C@@H](O)[C@]1(C)O` [Example 19, 2′-O-(3-{[(1,3,5-Trimethyl-1H-pyrazol-4-yl)carbonyl]amino}propyl)-9-deoxo-9a-methyl-9a-aza-9a-homoerythromycin A]: the inhibition in vivo at 100 mg/kg in the assay with male BALB/cJ mice (setting [2]) and with male BALB/cJ mice (setting [3]) was > 50% throughout. For the same molecule, the inhibition at 50 µM in assay [1] was > 40%.
As for `CC[C@H]1OC(=O)[C@H](C)[C@@H](O[C@H]2C[C@@](C)(OC)[C@@H](O)[C@H](C)O2)[C@H](C)[C@@H](O[C@@H]2O[C@H](C)C[C@H](N(C)C)[C@H]2OCCCNC(=O)c2cccnc2)[C@](C)(O)C[C@@H](C)CN(C)[C@H](C)[C@@H](O)[C@]1(C)O` [Example 20, 2′-O-{3-[(3-Pyridinylcarbonyl)amino]propyl}-9-deoxo-9a-methyl-9a-aza-9a-homoerythromycin A], the inhibition in vivo at 100 mg/kg in the assay on male BALB/cJ mice (setting [2]) and with male BALB/cJ mice (setting [3]) was > 30% each time. Further, in assay [1], the inhibition at 50 µM is > 40%.
As to `CCOCC(=O)NCCCO[C@H]1[C@H](O[C@@H]2[C@@H](C)[C@H](O[C@H]3C[C@@](C)(OC)[C@@H](O)[C@H](C)O3)[C@@H](C)C(=O)O[C@H](CC)[C@@](C)(O)[C@H](O)[C@@H](C)N(C)C[C@H](C)C[C@@]2(C)O)O[C@H](C)C[C@@H]1N(C)C` [Example 21, 2′-O-{3-[(Ethyloxyacetyl)amino]propyl}-9-deoxo-9a-methyl-9a-aza-9a-homoerythromycin A], in the assay with Male BALB/c mice (dose of 30 mg/kg), the “reduction … statistical significance” value is listed as “statistically significantly reduced”. Besides, the inhibition in vivo at 100 mg/kg in the assay with male BALB/cJ mice (setting [2]) and with male BALB/cJ mice (setting [3]) was > 50% each time. In addition, the inhibition at 50 µM in assay [1] is > 40%.
As to `CC[C@H]1OC(=O)[C@H](C)[C@@H](O[C@H]2C[C@@](C)(OC)[C@@H](O)[C@H](C)O2)[C@H](C)[C@@H](O[C@@H]2O[C@H](C)C[C@H](N(C)C)[C@H]2OCCCNC(=O)C2CCOCC2)[C@](C)(O)C[C@@H](C)CN(C)[C@H](C)[C@@H](O)[C@]1(C)O` [Example 25, 2′-1-{3-[(Tetrahydro-2H-pyran-4-ylcarbonyl)amino]propyl}-9-deoxo-9a-methyl-9a-aza-9a-homoerythromycin A], the inhibition in vivo at 100 mg/kg in the assay with male BALB/cJ mice (setting [2]) and in the assay with male BALB/cJ mice (setting [3]) was > 50% in each case. Besides, the inhibition at 50 µM in assay [1] was > 40%.

The values are drawn from US20110281812A1, “Compounds” (priority 2009, published 2011).
